According to US9486546B2, “Methods and compositions for radiohalogen protein labeling” (Genentech, Inc., priority 2012, dated 2016):

Test: Water solubility of labeling precursor
Assay type: physicochemical
Conditions: aqueous 0.1% acetic acid
From the text: The radiochemical strategy shown on FIG. 3 uses the mild, water soluble oxidant, N-chlorosuccinimide, to achieve iodination on the hydroxyphenyl group of 4. […] Even though much greater radiochemical yield was possible by increasing the ratio of 4 to Na^125I, the highest possible specific activity of the radiolabeled intermediate 5 and higher conjugation yields was facilitated by avoiding saturation of available reduced thiols. The intermediate 5 was easily purified from free iodide and oxidant using reverse-phase solid-phase extraction cartridges. Acid deprotection yielded the triacid 6, with completeness of reaction monitored by reverse-phase radio-HPLC (FIG. 3). This 4-hydroxy-3-iodophenyl derivative of DOTA, 6, was designated [^125I] HIP-DOTA. After exhaustive removal of acid by repeated evaporation of toluene, the thiol-containing antibody could be introduced for thiol-maleimide coupling. Remaining free thiols in the radioimmunoconjugate were capped with iodoacetic acid to avoid dimerization or formation of adducts with thiol containing plasma or endogenous proteins. All radioimmunoconjugates were analyzed for purity by size-exclusion HPLC and compared to the profile of unlabeled antibodies, such as trastuzumab.

**Q.** Which Water solubility does the source give for `CC(C)(C)OC(=O)CN1CCN(CC(=O)NCCN(CC(=O)NCC(=O)NCCN2C(=O)C=CC2=O)C(=O)Cc2ccc(O)cc2)CCN(CC(=O)OC(C)(C)C)CCN(CC(=O)OC(C)(C)C)CC1` [compound 4, tri-tert-butyl 2,2′,2″-(10-(14-(2,5-dioxo-2,5-dihydro-1H-pyrrol-1-yl)-6-(2-(4-hydroxyphenyl)acetyl)-2,8,11-trioxo-3,6,9,12-tetraazatetradecyl)-1,4,7,10-tetraazacyclododecane-1,4,7-triyl)triacetate] here?
**A.** Its Water solubility is “sufficiently water soluble”.
